From patent publication US20170333459A1 (priority 2010, published 2017) come the findings set out here.

The test system of this test is ectromelia, cowpox, vaccinia, or monkeypox virus. Also noted: species or system mice. The conditions noted are these: mouse, in vivo.

For the compound `CCCCCCCCCCCCCCCCOCCCOP(=O)(O)CO[C@H](CO)Cn1ccc(N)nc1=O` [CMX001, 1-O-hexadecyloxypropyl cidofovir], the preventing mortality result is recorded as “effective in preventing mortality”.
